Results: ChEMBL document CHEMBL1201862, “PubChem BioAssay data set” (2004)
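Method: 48-hour compound exposure of cells in 96-well plates, five concentrations, linear interpolation of endpoints. GI50 = concentration required for 50% inhibition of growth.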 The source made the active and inactive calls. Cut-off read from the data, not from the text of the source: active = GI50 up to about 1.1 µM and inactive = higher.

Tests used:
Assay in all cases: growth of human tumour cells (NCI), 48 h
A498 = system: A498
EKVX = system: EKVX
HCT-116 = system: HCT-116
IGROV-1 = system: IGROV-1
LOX IMVI = system: LOX IMVI
MOLT-4 = system: MOLT-4
Malme-3M = system: Malme-3M
NCI-H23 = system: NCI-H23
NCI-H522 = system: NCI-H522
NCI/ADR-RES = system: NCI/ADR-RES
PC-3 = system: PC-3
RPMI-8226 = system: RPMI-8226
SF-268 = system: SF-268
SK-MEL-5 = system: SK-MEL-5
SK-OV-3 = system: SK-OV-3
SR = system: SR
SW-620 = system: SW-620
UACC-257 = system: UACC-257
UO-31 = system: UO-31
HOP-62 = system: HOP-62

| Structure (SMILES) | GI50 (A498) | GI50 (EKVX) | GI50 (HCT-116) | GI50 (IGROV-1) | GI50 (LOX IMVI) | GI50 (MOLT-4) | GI50 (Malme-3M) | GI50 (NCI-H23) | GI50 (NCI-H522) | GI50 (NCI/ADR-RES) | GI50 (PC-3) | GI50 (RPMI-8226) | GI50 (SF-268) | GI50 (SK-MEL-5) | GI50 (SK-OV-3) | GI50 (SR) | GI50 (SW-620) | GI50 (UACC-257) | GI50 (UO-31) | GI50 (HOP-62) |
| --- | --- | --- | --- | --- | --- | --- | --- | --- | --- | --- | --- | --- | --- | --- | --- | --- | --- | --- | --- | --- |
| Nc1nc2cc3nc(N)c(N)nc3cc2nc1N | > 100 µM (inactive) | > 100 µM (inactive) | 84.3 µM (inactive) | > 100 µM (inactive) | > 100 µM (inactive) | 92.9 µM (inactive) | > 100 µM (inactive) | > 100 µM (inactive) | > 100 µM (inactive) | > 100 µM (inactive) | > 100 µM (inactive) | > 100 µM (inactive) | > 100 µM (inactive) | > 100 µM (inactive) | > 100 µM (inactive) | 71.8 µM (inactive) | > 100 µM (inactive) | > 100 µM (inactive) | > 100 µM (inactive) | – |
| COC1C=COC2(C)Oc3c(C)c(O)c4c(O)c(c(C5SCCS5)c(O)c4c3C2=O)NC(=O)/C(C)=C\C=CC(C)C(O)C(C)C(O)C(C)C(OC(C)=O)C1C (configuration not stated) | 13.1 µM (inactive) | – | 5.02 µM (inactive) | 7.33 µM (inactive) | 2.18 µM (inactive) | 2.32 µM (inactive) | 8.11 µM (inactive) | 4.69 µM (inactive) | 4.75 µM (inactive) | 15.5 µM (inactive) | 4.98 µM (inactive) | 2.71 µM (inactive) | 11 µM (inactive) | 7.89 µM (inactive) | 14.1 µM (inactive) | 3.15 µM (inactive) | 5.42 µM (inactive) | 4.7 µM (inactive) | 12.1 µM (inactive) | 10.9 µM (inactive) |
| CN1N(c2ccccc2)C(=O)C2=NC=C(C#N)C(=N)C21C (configuration not stated) | > 100 µM (inactive) | > 100 µM (inactive) | > 100 µM (inactive) | > 100 µM (inactive) | > 100 µM (inactive) | > 100 µM (inactive) | > 100 µM (inactive) | > 100 µM (inactive) | > 100 µM (inactive) | > 100 µM (inactive) | > 100 µM (inactive) | > 100 µM (inactive) | – | > 100 µM (inactive) | > 100 µM (inactive) | 19.8 µM (inactive) | > 100 µM (inactive) | > 100 µM (inactive) | > 100 µM (inactive) | – |
| N#Cc1c(NC(=S)Nc2ccccc2)sc2c1CCCC2 | > 100 µM (inactive) | > 100 µM (inactive) | > 100 µM (inactive) | > 100 µM (inactive) | > 100 µM (inactive) | > 100 µM (inactive) | > 100 µM (inactive) | > 100 µM (inactive) | > 100 µM (inactive) | > 100 µM (inactive) | > 100 µM (inactive) | > 100 µM (inactive) | > 100 µM (inactive) | > 100 µM (inactive) | – | > 100 µM (inactive) | > 100 µM (inactive) | > 100 µM (inactive) | > 100 µM (inactive) | > 100 µM (inactive) |
| O=c1[nH]nc(-c2ccccc2)n1/N=C/c1ccccc1O | 34.1 µM (inactive) | 67.9 µM (inactive) | 33.4 µM (inactive) | 53 µM (inactive) | > 100 µM (inactive) | > 100 µM (inactive) | 88.1 µM (inactive) | > 100 µM (inactive) | 42.7 µM (inactive) | > 100 µM (inactive) | 89.9 µM (inactive) | > 100 µM (inactive) | 80.2 µM (inactive) | 47.8 µM (inactive) | 22.9 µM (inactive) | > 100 µM (inactive) | > 100 µM (inactive) | > 100 µM (inactive) | > 100 µM (inactive) | – |
| CCN(CCCl)c1cc(CN(C)C)cc(NC(=O)c2cc(C(=O)Nc3cc(CN(C)C)cc(N(CC)CCCl)c3)n(C)n2)c1 | 2 µM (inactive) | – | 0.227 µM (active) | 0.136 µM (active) | 0.0685 µM (active) | < 0.01 µM (active) | 1.49 µM (inactive) | 0.284 µM (active) | 0.115 µM (active) | 10.3 µM (inactive) | 0.164 µM (active) | 0.24 µM (active) | 0.065 µM (active) | 1.09 µM (active) | 0.331 µM (active) | 0.0119 µM (active) | 0.0962 µM (active) | 1.37 µM (inactive) | 3.06 µM (inactive) | 0.121 µM (active) |
| CC(C)=CCC[C@@H](C)c1c2nc3ccccc3[nH]c-2c(C)c(=O)c1O | 2.12 µM (inactive) | 2.7 µM (inactive) | 1.36 µM (inactive) | 2.07 µM (inactive) | 1.75 µM (inactive) | 1.44 µM (inactive) | 1.58 µM (inactive) | 1.89 µM (inactive) | – | 0.771 µM (active) | 3.32 µM (inactive) | 8.73 µM (inactive) | 0.906 µM (active) | 1.63 µM (inactive) | 2.15 µM (inactive) | 3.41 µM (inactive) | 3.13 µM (inactive) | 2.37 µM (inactive) | 0.714 µM (active) | 1.19 µM (inactive) |
| CCO/C=N\c1c(C#N)c(-c2ccc(Cl)cc2)cn1-c1ccc(C)cc1 | > 100 µM (inactive) | > 100 µM (inactive) | > 100 µM (inactive) | > 100 µM (inactive) | > 100 µM (inactive) | – | > 100 µM (inactive) | > 100 µM (inactive) | > 100 µM (inactive) | > 100 µM (inactive) | > 100 µM (inactive) | – | > 100 µM (inactive) | > 100 µM (inactive) | > 100 µM (inactive) | 0.0272 µM (active) | > 100 µM (inactive) | > 100 µM (inactive) | > 100 µM (inactive) | > 100 µM (inactive) |
| Cc1nc2c(o1)C(=O)c1ccccc1/C2=N/C1CCCCC1N (configuration not stated) | 1.73 µM (inactive) | 1.11 µM (active) | 0.259 µM (active) | 1.26 µM (inactive) | 0.16 µM (active) | 0.273 µM (active) | 0.133 µM (active) | 0.0975 µM (active) | 1.06 µM (active) | 0.288 µM (active) | 0.321 µM (active) | 0.565 µM (active) | 1.09 µM (active) | 0.11 µM (active) | – | 0.22 µM (active) | 0.418 µM (active) | 0.144 µM (active) | 1.64 µM (inactive) | 0.982 µM (active) |
| Cc1cc(-c2nc3cc(O)ccc3s2)ccc1N | 24.7 µM (inactive) | 10.2 µM (inactive) | 22.8 µM (inactive) | 33.4 µM (inactive) | 45 µM (inactive) | 96.2 µM (inactive) | 45.7 µM (inactive) | 46.1 µM (inactive) | 31 µM (inactive) | 38.1 µM (inactive) | 30.1 µM (inactive) | – | 36.7 µM (inactive) | 22.5 µM (inactive) | 19.3 µM (inactive) | 32 µM (inactive) | 38 µM (inactive) | 35.1 µM (inactive) | 18.7 µM (inactive) | 26.8 µM (inactive) |
| C=CCn1c(-c2ccc(/N=N/Nc3ccc(-c4n[nH]c(=S)n4CC=C)cc3)cc2)n[nH]c1=S | > 100 µM (inactive) | 5.55 µM (inactive) | – | 3.34 µM (inactive) | 3.4 µM (inactive) | 2.01 µM (inactive) | 3.57 µM (inactive) | 3.22 µM (inactive) | 2.92 µM (inactive) | 21.4 µM (inactive) | 3.17 µM (inactive) | 1.76 µM (inactive) | 5.06 µM (inactive) | 1.53 µM (inactive) | 11.7 µM (inactive) | 2.84 µM (inactive) | 7.13 µM (inactive) | 3.33 µM (inactive) | 1.83 µM (inactive) | 3.4 µM (inactive) |
